This passage reports IC50 and IC30 results from ChEMBL document CHEMBL3046466 (Med Chem Res, 2012).

The target of the data set is Voltage-dependent L-type calcium channel subunit alpha-1C (Cavia porcellus, UniProt O35505). The data set is described as follows: Inhibition of Calcium channel in Cavia porcellus albino (guinea pig) ileocecal SMC assessed as inhibition of 80 mM KCl-induced contraction. Particulars: for IC30: guinea pig.

What is called IC50 is the concentration that gives 50% inhibition.

Chain of Voltage-dependent L-type calcium channel subunit alpha-1C (O35505 whole entry): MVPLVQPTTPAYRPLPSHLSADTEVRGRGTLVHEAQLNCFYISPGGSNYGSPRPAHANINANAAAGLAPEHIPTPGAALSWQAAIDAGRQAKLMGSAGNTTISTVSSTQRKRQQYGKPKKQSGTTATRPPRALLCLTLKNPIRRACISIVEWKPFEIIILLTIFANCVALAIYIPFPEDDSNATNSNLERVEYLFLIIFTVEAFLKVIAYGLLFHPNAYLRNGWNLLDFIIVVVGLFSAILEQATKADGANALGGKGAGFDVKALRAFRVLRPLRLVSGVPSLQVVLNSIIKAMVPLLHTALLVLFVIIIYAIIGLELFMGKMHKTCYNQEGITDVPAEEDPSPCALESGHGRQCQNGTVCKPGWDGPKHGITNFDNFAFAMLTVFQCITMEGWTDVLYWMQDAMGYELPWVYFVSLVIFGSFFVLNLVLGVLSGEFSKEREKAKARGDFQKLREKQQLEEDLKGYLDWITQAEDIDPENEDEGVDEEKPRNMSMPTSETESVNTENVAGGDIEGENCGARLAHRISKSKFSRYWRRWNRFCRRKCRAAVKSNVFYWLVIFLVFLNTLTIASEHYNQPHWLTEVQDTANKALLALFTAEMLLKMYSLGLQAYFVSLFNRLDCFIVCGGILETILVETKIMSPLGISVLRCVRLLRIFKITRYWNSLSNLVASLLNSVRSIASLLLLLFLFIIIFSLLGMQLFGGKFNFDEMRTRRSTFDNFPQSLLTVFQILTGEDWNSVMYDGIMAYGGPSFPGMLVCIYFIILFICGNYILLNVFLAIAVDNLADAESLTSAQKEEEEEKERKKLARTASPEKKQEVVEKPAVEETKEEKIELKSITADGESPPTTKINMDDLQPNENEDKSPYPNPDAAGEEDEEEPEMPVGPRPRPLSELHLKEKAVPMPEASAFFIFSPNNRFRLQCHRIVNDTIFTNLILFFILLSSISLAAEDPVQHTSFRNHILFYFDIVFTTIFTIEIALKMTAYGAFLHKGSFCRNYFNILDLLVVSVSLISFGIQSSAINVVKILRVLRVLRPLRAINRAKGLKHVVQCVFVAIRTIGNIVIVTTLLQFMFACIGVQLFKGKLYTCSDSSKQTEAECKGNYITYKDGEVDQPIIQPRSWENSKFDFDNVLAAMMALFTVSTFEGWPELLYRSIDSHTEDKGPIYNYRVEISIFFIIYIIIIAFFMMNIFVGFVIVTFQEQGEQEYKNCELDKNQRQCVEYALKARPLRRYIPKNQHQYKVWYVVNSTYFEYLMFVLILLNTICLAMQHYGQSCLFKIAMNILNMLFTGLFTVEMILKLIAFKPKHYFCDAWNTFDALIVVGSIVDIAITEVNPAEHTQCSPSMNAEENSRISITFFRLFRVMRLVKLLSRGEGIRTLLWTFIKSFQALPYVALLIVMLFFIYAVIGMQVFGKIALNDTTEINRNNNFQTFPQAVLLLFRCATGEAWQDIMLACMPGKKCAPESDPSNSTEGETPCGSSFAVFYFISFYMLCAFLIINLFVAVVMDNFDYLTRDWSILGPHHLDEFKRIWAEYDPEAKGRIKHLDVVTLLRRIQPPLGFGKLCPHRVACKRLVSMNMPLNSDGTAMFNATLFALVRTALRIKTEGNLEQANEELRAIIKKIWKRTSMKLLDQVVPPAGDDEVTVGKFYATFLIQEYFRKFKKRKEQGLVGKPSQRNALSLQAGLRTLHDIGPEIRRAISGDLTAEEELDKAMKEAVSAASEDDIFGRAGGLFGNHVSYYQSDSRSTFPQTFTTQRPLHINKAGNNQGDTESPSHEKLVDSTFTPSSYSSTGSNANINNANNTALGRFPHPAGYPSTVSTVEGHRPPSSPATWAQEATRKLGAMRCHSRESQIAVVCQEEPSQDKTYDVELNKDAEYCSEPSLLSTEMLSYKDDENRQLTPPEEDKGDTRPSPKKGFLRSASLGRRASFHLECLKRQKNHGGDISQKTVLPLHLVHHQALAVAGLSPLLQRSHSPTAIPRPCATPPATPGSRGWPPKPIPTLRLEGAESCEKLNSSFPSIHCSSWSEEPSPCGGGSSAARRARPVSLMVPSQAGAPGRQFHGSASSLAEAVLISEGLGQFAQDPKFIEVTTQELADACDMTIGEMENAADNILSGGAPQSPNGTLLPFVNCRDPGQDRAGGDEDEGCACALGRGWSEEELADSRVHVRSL

Take `CCOC(=O)C1=C(C)NC(C)=C(C(=O)OCC)C1c1ccc(-c2cc(=O)cc(C)o2)cc1`: the IC50 was 2.14 µM and the IC30 worked out at 7.2 ×10⁻⁷ M. For `CCOC(=O)C1=C(C)NC(C)=C(C(=O)OCC)C1c1cc(=O)cc(C)o1` the same measures were 35.9 µM and 1.45 ×10⁻⁶ M. In the same order, the values of `CCOC(=O)C1=C(C)NC(C)=C(C(=O)OCC)C1c1ccc(-c2cc(=O)cc(-c3ccccc3)o2)cc1` are 12.2 µM and 6.12 ×10⁻⁶ M. With `COC(=O)C1=C(C)NC(C)=C(C(=O)OC)C1c1ccccc1[N+](=O)[O-]` [NIFEDIPINE], the IC30 is reported as 1.6 ×10⁻⁸ M.

For the compound `CCOC(=O)C1=C(C)NC(C)=C(C(=O)OC)C1c1cc(=O)cc(C)o1` (stereo unspecified), the IC50 amounted to 1.63 µM and the IC30 stood at 5.38 ×10⁻⁷ M. For `CCOC(=O)C1=C(C)NC(C)=C(C(=O)OC)C1c1ccc(-c2cc(=O)cc(-c3ccccc3)o2)cc1` (stereo unspecified) the same measures were 94.4 µM and 4.62 ×10⁻⁶ M. For `CCOC(=O)C1=C(C)NC(C)=C(C(=O)OC)C1c1ccc(-c2cc(=O)cc(C)o2)cc1` (stereo unspecified) the same measures were 86.1 µM and 4.62 ×10⁻⁶ M.

Regarding `COC(=O)C1=C(C)NC(C)=C(C(=O)OC)C1c1ccc(-c2cc(=O)cc(-c3ccccc3)o2)cc1`, the IC50 was found to be 4.71 µM and the IC30 stood at 1.26 ×10⁻⁶ M.

Take `CCOC(=O)C1=C(C)NC(C)=C(C(=O)OCC)C1c1cc(=O)cc(-c2ccccc2)o1`: the IC50 stood at 3.24 µM and the IC30 worked out at 1.01 ×10⁻⁶ M. In the same order, the values of `COC(=O)C1=C(C)NC(C)=C(C(=O)OC)C1c1ccc(-c2cc(=O)cc(C)o2)cc1` are 17.8 µM and 3.67 ×10⁻⁶ M. For the compound `CCOC(=O)C1=C(C)NC(C)=C(C(=O)OC)C1c1cc(=O)cc(-c2ccccc2)o1` (stereo unspecified), the IC50 amounted to 2.03 µM and the IC30 was found to be 7.18 ×10⁻⁷ M.
